From patent US11697639B2, “Quaternary ammonium salt compound, preparation method therefor and use thereof” (WEST CHINA HOSPITAL, SICHUAN UNIVERSITY, priority 2018, dated 2023)
Structures can show the parent of a compound that is named as a salt.

Assays:
Type in all cases: in vivo
[1] = system: rat's sciatic nerve; experiment: Rat sciatic nerve block, motor function by Postural Extensor Thrust (PET); conditions: 0.5 mL injected near sciatic nerve, test drugs 20 mmol/mL in distilled water, lidocaine 2%, levobupivacaine 0.75%
Method: (§1) For the dosage, the lidocaine group is 2% aqueous solution, the levobupivacaine group is 0.75% aqueous solution, and test drug groups are all distilled water solution at the concentration of 20 mmol/mL.
(§2) The injection volume for each rat or the control was 0.5 mL, which was guided by a nerve locator and injected near the rat's sciatic nerve. Using von Frey stimulator, the rats were stimulated the soles of the feet in the injected side, to observe the effect of local anesthesia. Meanwhile, Postural Extensor Thrust (PET) was used to evaluate the motor function of the rat: the rat was lifted vertically and the hindlimb in the injected side pedaled on the platform of the electronic balance. […] When the limb was completely paralyzed, the reading was the limb's own weight, about 20 g. If the measured value was more than half of the difference between the baseline and the limb weight, the motor function was regarded as recovery, and if the value was less than or equal to this difference, the motor function was regarded as loss.

[2] = system: rat's sciatic nerve; experiment: Rat sciatic nerve block, sensory block tested with von Frey stimulator; conditions: 0.5 mL injected near sciatic nerve, test drugs 20 mmol/mL in distilled water, lidocaine 2%, levobupivacaine 0.75%; for Local anesthesia onset time (Median): 8 rats per group; for Time of sensory block (Median): von Frey
Method: as §1, §2

[3] = system: back skin of rat; experiment: Local anesthetic effect by subcutaneous infiltration in rat back skin (Von Frey 100 g); conditions: 0.5 mL in saline, compound 6 mmol/L, bupivacaine 23 mmol/L, 10 rats per compound
Method: After the back of rat weighing 250-300 g was shaved and disinfected, a circle with a diameter of about 1.5 cm was drawn on the side of the exposed back, and the circle is divided into 6 equal parts. […] Among the Von Frey fiber yarns, the one with a strength of 100 g was bound to the needle for local skin stimulation. One minute After the drug was injected, the above method was used to stimulate in 6 divisions. […] If back skin contraction was observed, the local anesthetic effect was considered as loss. […] Each compound was tested with 10 rats.

SMILES | Time of motor block (Median) [1] | Local anesthesia onset time (Median) [2] | Time of sensory block (Median) [2] | Lasting time of local anesthesia (Median) [3] | Local anesthesia onset time (Median) [3]
CCC[N+](C)(CCCCCN1CCCCC1C(=O)Nc1c(C)ccc(C#N)c1C)CC(=O)Nc1c(C)cccc1C (stereo not shown) [example 8] | 18 h | 1 min | 24 h | 33 h | 1 min
CCCCN(C(=O)[C@@H]1CCCCN1CCCCCCC[N+](CC)(CCC)CC(=O)Nc1c(C)cccc1C)c1c(C)cccc1C.[Br-] (stereo partly shown) [example 23] | 28 h | 2 min | 35 h |  | 
CCC[N+](CC)(CCCCCCCCN1CCCCC1C(=O)Nc1c(C)cc(OC)cc1C)CC(=O)Nc1c(C)ccc([N+](=O)[O-])c1C.[Br-] (stereo not shown) [example 29] | 28 h | 1 min | 33 h |  | 
CCCC[N+](CC)(CCCCCCN1CCCCC1C(=O)Nc1c(C)cc([N+](=O)[O-])cc1C)CC(=O)Nc1c(C)cc(C(=O)O)cc1C.[Br-] (stereo not shown) [example 27] | 22 h | 2 min | 28 h |  | 
CCC[N+](CC)(CCCCCCCCN1CCCCC1C(=O)Nc1c(C)cccc1C)CC(=O)Nc1c(C)cccc1C.[Br-] (stereo not shown) [example 21] | 18 h | 1 min | 24 h |  | 
CCC[N+](CC)(CCCCN1C(C)CCCC1C(=O)Nc1c(C)cccc1C(C)C)CC(=O)Nc1c(C)cccc1C(C)C.[Br-] (stereo not shown) [example 20] | 20 h | 2 min | 25 h |  | 
CCC[N+](C)(CCCCCN1CCCCC1C(=O)Nc1c(C)cc(C)cc1C)CC(=O)Nc1c(C)cc(C#N)cc1C (stereo not shown) [example 13] | 17 h | 1 min | 25 h | 45 h | 1 min
Br.CCC[N+](CC)(CCCN1CCCCC1C(=O)Nc1c(C)ccc(S)c1C)CC(=O)Nc1c(C)cc(O)cc1C.[Br-] (stereo not shown) [example 18] | 21 h | 1 min | 31 h |  | 
CC[N+](C)(CCCN(C)CC(=O)Nc1c(C)cccc1C)CC(=O)Nc1c(C)cccc1C (stereo not shown) [example 9] | 10 h | 5 min | 24 h | 28 h | 2 min
CCC[N+](CC)(CCCCCCCN1CCC(OC)C[C@@H]1C(=O)Nc1c(C)cccc1C)CC(=O)Nc1c(C)cccc1C.[Br-] (stereo partly shown) [example 22] | 18 h | 3 min | 29 h |  | 
CC[N+](C)(CCCN1CCCCC1C(=O)Nc1c(C)cccc1C)CC(=O)Nc1c(C)ccc(Cl)c1C (stereo not shown) [example 6] | 19 h | 3 min | 30 h | 47 h | 1 min
CCC[N+](CC)(CCCCCCCCN1CCCCC1C(=O)Nc1c(C)cccc1C)CC(=O)Nc1c(C)cccc1OC (stereo not shown) [example 7] | 10 h | 2 min | 28 h | 57 h | 1 min
CC[N+](C)(CCCN1CCCC[C@@H]1C(=O)Nc1c(C)cccc1C)CC(=O)Nc1c(C)cccc1C (stereo partly shown) [example 16] | 19 h | 1 min | 25 h |  | 
CCC[N+](CC)(CCCN1CCCC[C@@H]1C(=O)Nc1c(C)ccc(C(=O)OC)c1C)CC(=O)Nc1c(C)ccc(N)c1C.O=C(O)C(O)C(O)C(=O)O.[Br-] (stereo partly shown) [example 30] | 19 h | 4 min | 28 h |  | 
CCCC[N+](CC)(CCOCCN1CCCCC1C(=O)Nc1c(C)cccc1C)CC(=O)Nc1c(C)cccc1O (stereo not shown) [example 5] | 11 h | 6 min | 28 h | 68 h | 1 min
CC[N+](C)(CCCN1CCCCC1C(=O)Nc1c(C)cccc1C)CC(=O)Nc1c(C)cccc1C.O=C(O)c1ccccc1.[Br-] (stereo not shown) [example 14] | 18 h | 3 min | 32 h |  | 
CCC[N+](CC)(CCCCCCCN1CCCC[C@@H]1C(=O)Nc1c(C)ccc(C(=O)O)c1C)CC(=O)Nc1c(C)ccc(OC)c1C.[Br-] (stereo partly shown) [example 28] | 18 h | 4 min | 26 h |  | 
CCC[N+](CC)(CCCCCCCCN1CCCCC1C(=O)Nc1c(C)cccc1C)CC(=O)Nc1c(C)cccc1C.[Br-] (stereo not shown) [example 17] | 17 h | 5 min | 24 h |  | 
CCC[N+](CC)(CCCCCCCCN1CCCCC1C(=O)Nc1c(C)cccc1C)CC(=O)Nc1c(C)ccc(Br)c1C (stereo not shown) [example 11] | 11 h | 1 min | 34 h | 54 h | 1 min
CCC[N+](CC)(CCCCCCCCN1CCCCC1C(=O)Nc1c(C)cccc1C)CC(=O)Nc1c(C)ccc(Br)c1C (stereo not shown) [example 4] | 10 h | 1 min | 33 h | 44 h | 2 min
CCC[N+](CC)(CCCCCCCCN1CCCC[C@@H]1C(=O)Nc1c(C)cccc1C)CC(=O)Nc1c(C)cccc1C.O=C(O)CC(O)(CC(=O)O)C(=O)O.[Br-] (stereo partly shown) [example 25] | 24 h | 5 min | 32 h |  | 
CCC[N+](CC)(CCCCCCCN1CCCCC1C(=O)Nc1c(C)ccc(Cl)c1C)CC(=O)Nc1c(C)ccc(C#N)c1C.[Br-] (stereo not shown) [example 24] | 16 h | 1 min | 24 h |  | 
CCC[N+](CC)(CCCCCCCCN1CCCC[C@H]1C(=O)Nc1c(C)cccc1C)CC(=O)Nc1c(C)cccc1C.[Br-] (stereo partly shown) [example 19] | 22 h | 1 min | 29 h |  | 
CCC[N+](CC)(CCCCCCCCN1CCCCC1C(=O)Nc1c(C)cccc1C)CC(=O)Nc1c(C)cccc1C.Cl.[Br-] (stereo not shown) [example 15] | 25 h | 2 min | 38 h |  | 
CC[N+](C)(CCCN1CCCCC1C(=O)Nc1c(C)cccc1C)CC(=O)Nc1c(C)cccc1C (stereo not shown) [example 1] | 18 h | 3 min | 24 h | 34 h | 1 min
CCC[N+](CC)(CCCCCN1CCCCC1C(=O)Nc1c(C)cccc1C)CC(=O)Nc1c(C)cc([N+](=O)[O-])cc1C (stereo not shown) [example 3] | 10 h | 1 min | 27 h | 37 h | 1 min
CCCCN1CCCC[C@H]1C(=O)Nc1c(C)cccc1C [Levobupivacaine Hydrochloride, reference compound] | 2.5 h | 1 min | 2.5 h | 7 h | 1 min
CCC[N+](CC)(CCCCCCCCN1CCCC1C(=O)Nc1c(C)ccc(C#N)c1C)CC(=O)Nc1c(C)ccc(C(=O)OC)c1C.[Br-] (stereo not shown) [example 26] | 18 h | 3 min | 25 h |  | 
